In BindingDB's records for doi:10.1021/jm00398a022 (University of Wisconsin, 1988):

Molecular target: Cathepsin D (Oryctolagus cuniculus)
Experiment: Inhibition of rabbit liver cathepsin D at pH 4.0

In the case of `COC(=O)[C@H](Cc1ccccc1)NC(=O)[C@H](CC(C)C)NC(=O)CC(O)[C@H](CC(C)C)NC(=O)[C@H](Cc1c[nH]cn1)NC(=O)COC(=O)C(C)(C)C` (stereo partly drawn) [POA-His-Sta-Leu-PheOMe], the Ki is reported as 3.5 µM.
